In patent publication US8492328B2, “Biomarkers and methods for determining sensitivity to insulin growth factor-1 receptor modulators” (Bristol-Myers Squibb Company, priority 2007, dated 2013):
“Also recorded” adds a separate entry of the source.

Columns and labels:
RD1-Resist cells = assay: In vitro cellular proliferation assay, compound 1 acquired resistant RD1; format: cell-based; details: Homo sapiens
Method: (§1) All pediatric sarcoma and neuroblastoma cell lines were obtained from Dr. Lee Helman at NIH. All cell lines were grown in RPMI medium supplemented with Glutamax (Gibco/Invitrogen #61870-036), 10% inactivated fetal bovine serum (Gibco/Invitrogen #16140-071), 10 mM Hepes, penicillin and streptomycin.
(§2) Cells were plated at an optimized density for each cell line per well in 96-well microtiter Falcon plates, incubated overnight, and then exposed to a serial dilution of drug. After 72 hours incubation with drug at 37° C., cells were pulsed with 4 μCi/ml [6-3H] thymidine (Amersham Pharmacia Biotech, UK) for 3 hours, trypsinized, harvested onto UniFilter-96, GF/B plates (PerkinElmer, Boston, Mass.) and scintillation was measured on a TopCount NXT (Packard, Conn.). Results were expressed as an IC50, which is the drug concentration required to inhibit cell proliferation by 50% to that of untreated control cells. The mean IC50 and standard deviation (SD) from multiple tests for each cell line were calculated.
(§3) Acquired resistance to anti-cancer agents is a major clinical problem. […] In order to identify markers that may contribute to acquired resistance to the IGF1R inhibitor, global gene expression profiles for both parental RD1 and resistant RD1 were analyzed using Affymetrix gene chip. […]

5838 = assay: In vitro cellular proliferation assay ([3H]-thymidine incorporation); format: cell-based, human; details: 5838 (Ewing)
Method: as §1, §2

TC71 = assay: as above; format: cell-based, human; details: TC71 (Ewing)
Method: as §1, §2

Rh41 cells = assay: Gene expression profiling of cells with compound 1 treatment; format: cell-based, human
RD-1 cells = assay: In vitro cellular proliferation assay, parental sensitive RD-1; format: cell-based; details: Homo sapiens, RD1; sensitive parental RD-1 (RMS) cells
Method: as §1, §2, §3

Rh36 cells = assay: Gene and protein expression profiling of cells with compound 1 treatment; format: cell-based, human; details: later time points, 36 and 72 hrs

SMILES: Cc1cc(N2CCOCC2)cc2[nH]c(-c3c(NC[C@@H](O)c4cccc(Cl)c4)cc[nH]c3=O)nc12 [Compound 1, (S)-4-(2-(3-chlorophenyl)-2-hydroxyethylamino)-3-(4-methyl-6-morpholino-1H-benzo[d]imidazol-2-yl)-pyridin-2(1-H)-one]
- IC50 (RD1-Resist cells): 2000 nM
- IC50 (RD1-Resist cells; RD1, acquired resistant RD-1 cells): 2000 nM
- Sensitivity Classification 5838: S (“S” means sensitive)
- IC50 (5838; Homo sapiens, 72 hours with drug, read-out: IC50): 172 nM
- IC50 (TC71; Homo sapiens, TC-71, 72 hours with drug, read-out: IC50): 119 nM
- Sensitivity Classification (TC71): S (“S” means sensitive)
- Ki-67 expression (Rh41 cells; compound 1 treated cells): Remarkable but not complete decrease
- expression of programmed cell death 4 (PDCD4) (Rh41 cells; sensitive Rh41 cells): up-regulated
- expression level of survivin (Rh41 cells; sensitive Rh41 cells, especially at 36 and 72 hours): significantly reduced
- genes with significant expression changes upon the drug treatment (Rh41 cells; sensitive cell Rh41): 30%
- IC50 (RD-1 cells): 238 nM
- effect of drug on gene/protein expression (Rh36 cells): little to no effect; also recorded: little, to no effect
